Test results as given in ChEMBL document CHEMBL5291721, “A preclinical secondary pharmacology resource illuminates target-adverse drug reaction associations of marketed drugs” (Nat Commun, 2023).

How the values were obtained:
[1] = target: Voltage-dependent L-type calcium channel subunit alpha-1C (Rattus norvegicus, UniProt P22002); assay type: functional
Vasopressin V1a receptor = Vasopressin V1a receptor (Homo sapiens, UniProt P37288)
[2] = target: T1, 5-hydroxytryptamine receptor 1A (Homo sapiens, UniProt P08908); assay type: functional, cell-based
T1 sequence (P08908 whole entry): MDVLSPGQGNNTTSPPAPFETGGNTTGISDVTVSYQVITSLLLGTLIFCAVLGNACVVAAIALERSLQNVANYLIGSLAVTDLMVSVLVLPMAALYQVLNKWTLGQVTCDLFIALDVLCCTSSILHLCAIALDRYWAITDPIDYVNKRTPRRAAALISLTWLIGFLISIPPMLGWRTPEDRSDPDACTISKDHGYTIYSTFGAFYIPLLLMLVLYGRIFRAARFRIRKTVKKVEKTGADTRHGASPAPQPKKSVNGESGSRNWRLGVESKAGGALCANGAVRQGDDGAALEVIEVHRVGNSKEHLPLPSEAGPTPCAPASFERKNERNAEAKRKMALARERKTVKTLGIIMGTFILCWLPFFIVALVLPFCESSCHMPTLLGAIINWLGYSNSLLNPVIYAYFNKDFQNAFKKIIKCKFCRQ

[3] = target: Glutamate receptor ionotropic, NMDA 1 (Rattus norvegicus, UniProt P35439)
[4] = target: Prostaglandin G/H synthase 1 (Homo sapiens, UniProt P23219); assay type: functional
[5] = target: 5-hydroxytryptamine receptor 2B (Homo sapiens, UniProt P41595); assay type: functional, cell-based
Progesterone receptor [6] = target: T2, Progesterone receptor (Homo sapiens, UniProt P06401)
T2 sequence (P06401 whole entry): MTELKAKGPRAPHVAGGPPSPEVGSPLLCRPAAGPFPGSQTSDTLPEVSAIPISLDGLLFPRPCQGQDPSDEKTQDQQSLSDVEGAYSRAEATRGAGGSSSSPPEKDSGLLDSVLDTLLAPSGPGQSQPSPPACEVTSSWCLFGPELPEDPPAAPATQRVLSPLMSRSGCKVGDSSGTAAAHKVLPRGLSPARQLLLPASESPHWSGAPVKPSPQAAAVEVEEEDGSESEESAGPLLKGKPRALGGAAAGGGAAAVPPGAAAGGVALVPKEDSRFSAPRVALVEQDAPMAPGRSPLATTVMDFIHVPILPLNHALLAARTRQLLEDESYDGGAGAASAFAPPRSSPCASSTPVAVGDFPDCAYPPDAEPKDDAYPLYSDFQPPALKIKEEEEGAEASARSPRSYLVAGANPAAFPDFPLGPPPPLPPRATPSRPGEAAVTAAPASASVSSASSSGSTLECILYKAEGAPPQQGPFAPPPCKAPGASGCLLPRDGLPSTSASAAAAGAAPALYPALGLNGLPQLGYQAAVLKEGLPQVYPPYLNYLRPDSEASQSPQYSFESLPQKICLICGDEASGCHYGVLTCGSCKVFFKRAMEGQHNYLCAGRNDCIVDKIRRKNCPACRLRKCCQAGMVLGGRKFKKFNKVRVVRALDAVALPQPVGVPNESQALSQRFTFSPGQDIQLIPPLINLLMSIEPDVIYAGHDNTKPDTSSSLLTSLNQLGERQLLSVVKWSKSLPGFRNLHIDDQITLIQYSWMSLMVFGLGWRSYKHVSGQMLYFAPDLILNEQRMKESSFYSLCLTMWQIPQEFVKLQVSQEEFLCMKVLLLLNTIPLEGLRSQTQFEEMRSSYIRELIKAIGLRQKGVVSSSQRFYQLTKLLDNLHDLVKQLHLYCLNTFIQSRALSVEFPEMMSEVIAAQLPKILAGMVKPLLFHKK

Acetylcholinesterase = Acetylcholinesterase (Homo sapiens, UniProt P22303); assay type: functional
[7] = target: T3, Alpha-2A adrenergic receptor (Homo sapiens, UniProt P08913)
T3 sequence (P08913 whole entry): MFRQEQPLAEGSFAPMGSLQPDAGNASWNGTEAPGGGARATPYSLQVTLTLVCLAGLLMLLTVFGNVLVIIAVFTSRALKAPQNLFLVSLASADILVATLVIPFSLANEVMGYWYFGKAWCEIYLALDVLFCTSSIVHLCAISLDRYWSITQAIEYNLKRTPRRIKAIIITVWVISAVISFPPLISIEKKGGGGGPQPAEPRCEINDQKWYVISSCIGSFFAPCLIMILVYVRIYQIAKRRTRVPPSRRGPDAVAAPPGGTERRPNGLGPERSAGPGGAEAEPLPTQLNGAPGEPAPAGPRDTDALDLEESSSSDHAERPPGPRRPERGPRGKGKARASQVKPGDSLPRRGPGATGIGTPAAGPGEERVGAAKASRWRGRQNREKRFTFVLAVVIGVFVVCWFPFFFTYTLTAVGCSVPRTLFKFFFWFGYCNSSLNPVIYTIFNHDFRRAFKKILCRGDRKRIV

Thromboxane A2 receptor = target: T4, Thromboxane A2 receptor (Homo sapiens, UniProt P21731); assay type: functional, cell-based
T4 sequence (P21731 whole entry): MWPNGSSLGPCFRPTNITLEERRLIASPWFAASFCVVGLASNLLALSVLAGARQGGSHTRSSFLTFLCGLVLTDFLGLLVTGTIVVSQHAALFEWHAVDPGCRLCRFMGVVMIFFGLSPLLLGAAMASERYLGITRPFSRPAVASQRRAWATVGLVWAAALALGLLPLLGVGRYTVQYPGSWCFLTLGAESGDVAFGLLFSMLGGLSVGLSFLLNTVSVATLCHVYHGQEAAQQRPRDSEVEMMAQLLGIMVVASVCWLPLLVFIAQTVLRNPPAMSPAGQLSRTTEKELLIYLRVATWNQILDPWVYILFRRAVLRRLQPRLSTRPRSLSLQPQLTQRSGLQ

Histamine H3 receptor = Histamine H3 receptor (Homo sapiens, UniProt Q9Y5N1)
Prothrombin = Prothrombin (Homo sapiens, UniProt P00734); assay type: functional
[8] = target: Gamma-aminobutyric acid receptor subunit alpha-1 (Rattus norvegicus, UniProt P62813)
Progesterone receptor [9] = target: T2, Progesterone receptor; assay type: functional
Progesterone receptor [10] = target: T2, Progesterone receptor; assay type: functional; remark: listed apart in the source
Histamine H2 receptor = Histamine H2 receptor (Homo sapiens, UniProt P25021); assay type: functional, cell-based
Also: assay procedure not described here.

Gamma-aminobutyric acid receptor subunit alpha-1, sequence (P62813 whole entry): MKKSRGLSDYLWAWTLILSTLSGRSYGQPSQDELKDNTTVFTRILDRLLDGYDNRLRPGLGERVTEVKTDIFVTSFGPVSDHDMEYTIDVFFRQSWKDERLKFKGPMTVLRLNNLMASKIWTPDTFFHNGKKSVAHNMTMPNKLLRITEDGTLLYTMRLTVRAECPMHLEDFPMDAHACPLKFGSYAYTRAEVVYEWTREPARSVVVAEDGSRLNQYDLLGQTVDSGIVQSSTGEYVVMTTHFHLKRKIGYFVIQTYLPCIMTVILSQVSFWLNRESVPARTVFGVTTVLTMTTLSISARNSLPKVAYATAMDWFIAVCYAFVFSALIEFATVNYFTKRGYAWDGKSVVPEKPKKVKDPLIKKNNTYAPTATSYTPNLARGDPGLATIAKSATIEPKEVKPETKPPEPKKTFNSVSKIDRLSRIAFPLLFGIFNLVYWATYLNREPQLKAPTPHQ
Histamine H2 receptor, sequence (P25021 whole entry): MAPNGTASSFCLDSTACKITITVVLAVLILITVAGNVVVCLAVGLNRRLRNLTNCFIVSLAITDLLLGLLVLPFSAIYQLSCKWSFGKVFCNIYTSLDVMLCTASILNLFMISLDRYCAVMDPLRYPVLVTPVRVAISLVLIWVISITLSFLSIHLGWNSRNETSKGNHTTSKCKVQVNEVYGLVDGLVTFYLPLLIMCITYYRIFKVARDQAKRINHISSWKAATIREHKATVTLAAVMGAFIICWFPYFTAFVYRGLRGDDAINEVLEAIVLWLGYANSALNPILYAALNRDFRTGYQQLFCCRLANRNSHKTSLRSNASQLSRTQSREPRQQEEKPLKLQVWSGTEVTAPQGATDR
Voltage-dependent L-type calcium channel subunit alpha-1C, sequence (P22002 whole entry): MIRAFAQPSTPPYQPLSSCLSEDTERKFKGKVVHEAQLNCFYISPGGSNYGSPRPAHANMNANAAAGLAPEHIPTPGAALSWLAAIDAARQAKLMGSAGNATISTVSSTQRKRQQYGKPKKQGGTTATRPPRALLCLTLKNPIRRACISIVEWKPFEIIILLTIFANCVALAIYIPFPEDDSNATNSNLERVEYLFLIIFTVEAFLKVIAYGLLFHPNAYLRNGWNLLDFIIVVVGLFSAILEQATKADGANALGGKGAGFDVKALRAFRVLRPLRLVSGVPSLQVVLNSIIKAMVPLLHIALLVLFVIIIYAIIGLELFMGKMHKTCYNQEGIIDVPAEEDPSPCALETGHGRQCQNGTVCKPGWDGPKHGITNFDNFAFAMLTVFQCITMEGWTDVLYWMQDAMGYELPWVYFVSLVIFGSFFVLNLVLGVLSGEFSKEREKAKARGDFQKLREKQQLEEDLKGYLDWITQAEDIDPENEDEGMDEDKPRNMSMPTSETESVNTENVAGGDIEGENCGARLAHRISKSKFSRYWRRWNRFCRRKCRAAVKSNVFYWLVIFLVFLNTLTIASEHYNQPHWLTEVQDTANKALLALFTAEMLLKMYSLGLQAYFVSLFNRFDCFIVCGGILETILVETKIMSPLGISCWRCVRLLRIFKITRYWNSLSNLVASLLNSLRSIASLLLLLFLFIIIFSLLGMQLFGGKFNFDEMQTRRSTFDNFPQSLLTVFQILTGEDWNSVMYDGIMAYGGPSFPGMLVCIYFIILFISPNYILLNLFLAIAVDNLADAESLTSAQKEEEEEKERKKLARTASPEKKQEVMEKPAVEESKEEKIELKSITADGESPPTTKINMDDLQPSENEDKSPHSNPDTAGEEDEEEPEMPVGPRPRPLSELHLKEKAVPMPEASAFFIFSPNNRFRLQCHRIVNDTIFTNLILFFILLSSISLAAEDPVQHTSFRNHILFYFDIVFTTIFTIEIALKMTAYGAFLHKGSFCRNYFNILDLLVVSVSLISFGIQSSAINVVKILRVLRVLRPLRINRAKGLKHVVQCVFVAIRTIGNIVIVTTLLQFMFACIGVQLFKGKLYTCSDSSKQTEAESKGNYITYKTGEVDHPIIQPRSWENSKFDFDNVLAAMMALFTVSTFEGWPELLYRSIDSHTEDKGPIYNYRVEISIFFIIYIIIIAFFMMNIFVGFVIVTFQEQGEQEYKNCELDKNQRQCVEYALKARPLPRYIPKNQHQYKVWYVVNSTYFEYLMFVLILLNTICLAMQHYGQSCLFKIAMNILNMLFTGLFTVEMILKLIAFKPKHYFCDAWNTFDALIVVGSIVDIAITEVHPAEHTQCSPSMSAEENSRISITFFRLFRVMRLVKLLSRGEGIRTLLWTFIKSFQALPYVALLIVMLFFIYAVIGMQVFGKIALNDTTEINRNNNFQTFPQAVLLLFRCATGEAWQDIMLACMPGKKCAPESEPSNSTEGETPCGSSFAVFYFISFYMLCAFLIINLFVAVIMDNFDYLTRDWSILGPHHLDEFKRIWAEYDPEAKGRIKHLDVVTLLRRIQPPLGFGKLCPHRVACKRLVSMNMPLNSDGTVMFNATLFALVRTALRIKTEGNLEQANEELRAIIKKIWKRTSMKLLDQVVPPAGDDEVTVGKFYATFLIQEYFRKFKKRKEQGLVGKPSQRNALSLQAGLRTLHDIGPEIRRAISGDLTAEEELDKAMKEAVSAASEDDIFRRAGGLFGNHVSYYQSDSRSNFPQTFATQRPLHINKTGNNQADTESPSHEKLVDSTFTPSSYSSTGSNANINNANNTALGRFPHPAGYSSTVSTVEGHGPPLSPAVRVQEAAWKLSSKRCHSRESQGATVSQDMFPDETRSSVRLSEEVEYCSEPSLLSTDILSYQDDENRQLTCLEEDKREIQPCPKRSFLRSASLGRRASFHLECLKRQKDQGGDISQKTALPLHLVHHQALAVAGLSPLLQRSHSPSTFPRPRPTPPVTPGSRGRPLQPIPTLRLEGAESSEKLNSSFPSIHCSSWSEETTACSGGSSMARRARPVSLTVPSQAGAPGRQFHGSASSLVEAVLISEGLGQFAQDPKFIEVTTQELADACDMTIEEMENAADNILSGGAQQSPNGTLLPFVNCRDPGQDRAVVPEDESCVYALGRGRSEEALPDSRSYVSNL
Vasopressin V1a receptor, sequence (P37288 whole entry): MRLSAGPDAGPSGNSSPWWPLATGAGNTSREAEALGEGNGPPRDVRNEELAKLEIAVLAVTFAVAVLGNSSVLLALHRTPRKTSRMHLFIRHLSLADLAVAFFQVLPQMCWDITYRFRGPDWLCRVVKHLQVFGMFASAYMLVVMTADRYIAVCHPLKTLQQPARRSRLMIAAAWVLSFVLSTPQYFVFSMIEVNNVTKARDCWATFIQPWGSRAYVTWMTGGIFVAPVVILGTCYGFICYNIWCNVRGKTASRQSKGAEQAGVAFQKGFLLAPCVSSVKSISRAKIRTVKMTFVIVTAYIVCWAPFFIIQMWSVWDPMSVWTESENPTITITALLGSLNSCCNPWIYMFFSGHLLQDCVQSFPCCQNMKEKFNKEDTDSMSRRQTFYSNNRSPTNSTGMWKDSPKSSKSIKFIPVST
Histamine H3 receptor, sequence (Q9Y5N1 whole entry): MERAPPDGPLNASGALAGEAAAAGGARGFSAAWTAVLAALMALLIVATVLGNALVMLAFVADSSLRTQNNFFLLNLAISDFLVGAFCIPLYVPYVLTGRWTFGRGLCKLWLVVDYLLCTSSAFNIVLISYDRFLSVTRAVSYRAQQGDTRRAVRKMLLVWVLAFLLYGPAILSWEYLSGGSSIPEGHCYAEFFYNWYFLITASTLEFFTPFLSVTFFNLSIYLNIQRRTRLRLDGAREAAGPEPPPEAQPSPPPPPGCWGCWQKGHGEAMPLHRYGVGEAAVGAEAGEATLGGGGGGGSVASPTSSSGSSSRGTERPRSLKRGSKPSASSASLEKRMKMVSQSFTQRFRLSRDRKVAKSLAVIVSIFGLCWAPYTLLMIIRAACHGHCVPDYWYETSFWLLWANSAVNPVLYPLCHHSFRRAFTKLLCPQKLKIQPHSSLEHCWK
5-hydroxytryptamine receptor 2B, sequence (P41595 whole entry): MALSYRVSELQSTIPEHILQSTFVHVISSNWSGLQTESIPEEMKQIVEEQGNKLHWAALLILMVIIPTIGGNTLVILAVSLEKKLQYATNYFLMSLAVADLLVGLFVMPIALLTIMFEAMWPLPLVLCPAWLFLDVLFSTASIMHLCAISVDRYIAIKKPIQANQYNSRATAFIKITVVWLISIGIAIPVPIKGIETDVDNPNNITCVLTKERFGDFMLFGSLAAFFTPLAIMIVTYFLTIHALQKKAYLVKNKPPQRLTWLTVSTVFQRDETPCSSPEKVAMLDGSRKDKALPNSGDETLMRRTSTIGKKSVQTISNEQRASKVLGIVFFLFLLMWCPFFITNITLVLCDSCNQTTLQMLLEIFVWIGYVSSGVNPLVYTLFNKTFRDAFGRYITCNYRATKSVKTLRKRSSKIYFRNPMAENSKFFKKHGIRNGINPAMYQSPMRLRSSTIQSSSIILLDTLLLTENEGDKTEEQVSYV
Acetylcholinesterase, sequence (P22303 whole entry): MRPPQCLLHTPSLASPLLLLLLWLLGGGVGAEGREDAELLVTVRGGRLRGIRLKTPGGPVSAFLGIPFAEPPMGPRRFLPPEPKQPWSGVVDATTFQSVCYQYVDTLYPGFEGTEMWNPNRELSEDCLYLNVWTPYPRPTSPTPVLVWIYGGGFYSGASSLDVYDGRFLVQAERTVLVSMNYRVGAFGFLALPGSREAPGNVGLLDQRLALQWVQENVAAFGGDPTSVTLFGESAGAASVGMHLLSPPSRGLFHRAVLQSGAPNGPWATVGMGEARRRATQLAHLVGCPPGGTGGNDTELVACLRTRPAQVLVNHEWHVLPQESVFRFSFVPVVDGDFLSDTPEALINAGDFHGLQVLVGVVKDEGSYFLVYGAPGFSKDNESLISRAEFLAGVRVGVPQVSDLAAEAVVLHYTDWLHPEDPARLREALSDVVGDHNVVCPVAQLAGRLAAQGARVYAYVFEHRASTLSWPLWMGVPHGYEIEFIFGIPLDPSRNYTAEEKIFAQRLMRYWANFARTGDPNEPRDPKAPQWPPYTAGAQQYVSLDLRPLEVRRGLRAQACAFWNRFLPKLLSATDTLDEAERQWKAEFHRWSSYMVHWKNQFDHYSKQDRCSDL

| Structure (SMILES) | AC50 [1] | AC50 (Vasopressin V1a receptor) | AC50 [2] | AC50 [3] | AC50 [4] | AC50 [5] | AC50 (Progesterone receptor [6]) | AC50 (Acetylcholinesterase) | AC50 [7] | AC50 (Thromboxane A2 receptor) | AC50 (Histamine H3 receptor) | AC50 (Prothrombin) | AC50 [8] | AC50 (Progesterone receptor [9]) | AC50 (Progesterone receptor [10]) | AC50 (Histamine H2 receptor) |
| --- | --- | --- | --- | --- | --- | --- | --- | --- | --- | --- | --- | --- | --- | --- | --- | --- |
| CN(C)CCCC1(c2ccc(F)cc2)OCc2cc(C#N)ccc21 (stereo not drawn) [CITALOPRAM] | > 10 µM | > 10 µM | > 10 µM | > 10 µM | > 30 µM | > 30 µM | > 30 µM | > 30 µM | > 30 µM | > 30 µM | > 30 µM | > 30 µM | > 10 µM | – | – | – |
| CNC1(C)C2CCC(C2)C1(C)C (stereo not drawn) [MECAMYLAMINE] | > 10 µM | > 10 µM | > 10 µM | > 10 µM | – | – | – | – | – | – | – | – | – | > 10 µM | > 10 µM | > 10 µM |
| Nc1c2c(nc3ccccc13)CCCC2O (stereo not drawn) [VELNACRINE] | – | > 30 µM | > 30 µM | – | – | – | – | – | – | – | – | – | – | > 30 µM | > 30 µM | – |
| COC(=O)CCc1ccc(OCC(O)CNC(C)C)cc1 (stereo not drawn) [ESMOLOL] | > 30 µM | – | – | > 30 µM | – | – | – | – | – | – | – | – | > 30 µM | > 30 µM | > 30 µM | > 30 µM |
| CCC[C@@]1(CCc2ccccc2)CC(O)=C([C@H](CC)c2cccc(NS(=O)(=O)c3ccc(C(F)(F)F)cn3)c2)C(=O)O1 | – | > 30 µM | > 30 µM | – | – | – | – | – | – | – | – | – | – | 13 µM | > 30 µM | – |
| CCC1(c2ccccc2)C(=O)NCNC1=O [PRIMIDONE] | > 10 µM | – | > 10 µM | > 10 µM | – | – | – | – | – | – | – | – | – | > 10 µM | > 10 µM | > 10 µM |
| CO[C@@H]1[C@@H](OC(N)=O)[C@@H](O)[C@H](Oc2ccc3c(O)c(NC(=O)c4ccc(O)c(CC=C(C)C)c4)c(=O)oc3c2C)OC1(C)C [NOVOBIOCIN] | – | > 30 µM | > 30 µM | – | – | – | – | – | – | – | – | – | – | > 30 µM | > 30 µM | – |
| CC(=O)NC[C@H]1CN(c2ccc(N3CCOCC3)c(F)c2)C(=O)O1 [LINEZOLID] | – | – | > 30 µM | > 30 µM | – | – | – | – | – | – | – | – | > 30 µM | > 30 µM | > 30 µM | > 30 µM |
| CCOCC(O)COc1ccc(NC(=O)CC[S+](C)C)cc1 (stereo not drawn) | – | > 30 µM | > 30 µM | – | – | – | – | – | – | – | – | – | – | > 30 µM | > 30 µM | – |
| O=c1[nH]cc(F)c(=O)[nH]1 [FLUOROURACIL] | – | > 30 µM | – | – | > 30 µM | > 30 µM | > 30 µM | > 30 µM | > 30 µM | > 30 µM | > 30 µM | > 30 µM | – | – | > 30 µM | – |
| C[C@@H](O)[C@H]1C(=O)N2C(C(=O)O)=C(SCCN=CN)C[C@H]12 [IMIPENEM ANHYDROUS] | – | > 300 µM | > 300 µM | – | – | – | – | – | – | – | – | – | – | > 300 µM | > 300 µM | – |
| CN(C)CCc1c[nH]c2ccc(CS(=O)(=O)N3CCCC3)cc12 [ALMOTRIPTAN] | – | > 30 µM | – | > 30 µM | – | – | – | – | – | – | – | – | > 30 µM | > 30 µM | > 30 µM | > 30 µM |
| Cn1cnc2c(F)c(Nc3ccc(Br)cc3F)c(C(=O)NOCCO)cc21 [BINIMETINIB] | – | > 30 µM | > 30 µM | – | – | – | – | – | – | – | – | – | – | > 30 µM | > 30 µM | – |
